# Assays:
# Assay type in all cases: in vivo
# Kochia (Kochia scoparia) = assay: Test A preemergence; settings: Bassia scoparia, pre-emergence, 240 h, preemergence, read-out: Plant response rating, Kochia
# Outline: (§1)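 Ratings of 0 (no effect) to 100 (complete control) come from visual comparison with untreated controls roughly 10 d after treatment. Test chemicals, formulated in a non-phytotoxic solvent mixture with surfactant, were applied either as a preemergence directed soil spray on seeded soil or postemergence to one- to two-leaf plants 2 to 10 cm tall.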
# [1] = tested on: barnyardgrass (Echinochloa crus-galli); assay: Test A preemergence; settings: Echinochloa crus-galli, pre-emergence, 240 h, preemergence, read-out: Plant response rating, Barnyardgrass
# Outline: as §1
# [2] = tested on: giant foxtail (Setaria faberii); assay: Test A preemergence; settings: Setaria faberi, pre-emergence, 240 h, preemergence, read-out: Plant response rating, Foxtail, Giant
# Outline: as §1
# [3] = tested on: pigweed (Amaranthus retroflexus); assay: Test A preemergence; settings: Amaranthus retroflexus, pre-emergence, 240 h, preemergence, read-out: Plant response rating, Pigweed
# [4] = tested on: ragweed (common ragweed, Ambrosia elatior); assay: Test A preemergence; settings: Ambrosia artemisiifolia, pre-emergence, 240 h, preemergence, read-out: Plant response rating, Ragweed
# Outline: as §1
# [5] = tested on: ryegrass, Italian (Italian ryegrass, Lolium multiflorum); assay: Test A preemergence; settings: Lolium multiflorum, pre-emergence, 240 h, 125 g ai/ha, preemergence; visual rating after approx. 10 d; 0 to 100 scale where 0 is no effect and 100 is complete control; read-out: Plant response rating, Ryegrass, Italian
# Outline: as §1
# [6] = tested on: Galium (catchweed bedstraw, Galium aparine); assay: Test A postemergence; settings: Galium, post-emergence, 240 h, 125 g ai/ha, postemergence; visual injury after approximately 10 d; 0 to 100 scale (0 no effect, 100 complete control); read-out: Plant response rating, Galium
# Outline: as §1
# [7] = tested on: barnyardgrass (Echinochloa crus-galli); assay: Test A postemergence; settings: Echinochloa crus-galli, post-emergence, 240 h, 125 g ai/ha, postemergence; visual injury after approximately 10 d; 0 to 100 scale (0 no effect, 100 complete control); read-out: Plant response rating, Barnyardgrass
# Outline: as §1
# [8] = tested on: blackgrass (Alopecurus myosuroides); assay: Test A postemergence; settings: Alopecurus myosuroides, post-emergence, 240 h, 125 g ai/ha, postemergence; visual injury after approximately 10 d; 0 to 100 scale (0 no effect, 100 complete control); read-out: Plant response rating, Blackgrass
# Outline: as §1
# corn (Zea mays) = assay: Test A postemergence; settings: Zea mays, post-emergence, 240 h, 125 g ai/ha, postemergence; visual injury after approximately 10 d; 0 to 100 scale (0 no effect, 100 complete control)
# Outline: as §1
# [9] = tested on: giant foxtail (Setaria faberii); assay: Test A postemergence; settings: Setaria faberi, post-emergence, 240 h, 125 g ai/ha, postemergence; visual injury after approximately 10 d; 0 to 100 scale (0 no effect, 100 complete control); read-out: Plant response rating, Foxtail, Giant
# Outline: as §1
# [10] = tested on: pigweed (Amaranthus retroflexus); assay: Test A postemergence; settings: Amaranthus retroflexus, post-emergence, 240 h, 125 g ai/ha, postemergence; visual injury after approximately 10 d; 0 to 100 scale (0 no effect, 100 complete control); read-out: Plant response rating, Pigweed
# Outline: as §1
# [11] = tested on: ragweed (common ragweed, Ambrosia elatior); assay: Test A postemergence; settings: Ambrosia artemisiifolia, post-emergence, 240 h, 125 g ai/ha, postemergence; visual injury after approximately 10 d; 0 to 100 scale (0 no effect, 100 complete control); read-out: Plant response rating, Ragweed
# Outline: as §1
# [12] = tested on: ryegrass, Italian (Italian ryegrass, Lolium multiflorum); assay: Test A postemergence; settings: Lolium multiflorum, post-emergence, 240 h, 125 g ai/ha, postemergence; visual injury after approximately 10 d; 0 to 100 scale (0 no effect, 100 complete control); read-out: Plant response rating, Ryegrass, Italian
# Outline: as §1
# [13] = tested on: wheat (Triticum aestivum); assay: Test A postemergence; settings: Triticum aestivum, post-emergence, 240 h, 125 g ai/ha, postemergence; visual injury after approximately 10 d; 0 to 100 scale (0 no effect, 100 complete control); read-out: Plant response rating, Wheat
# Outline: as §1
# [14] = 125 g ai/ha, visual rating after approx. 10 d, 0 to 100 scale where 0 is no effect and 100 is complete control
# [15] = 500 g ai/ha, 0 to 100 scale, 0 = no effect, 100 = complete control
smiles,measurement,setting,value
CN1CC(c2cccc(OC/C=C/Cl)c2)C(C(=O)Nc2cccc(F)c2F)C1=O (centres unmarked) [Compound 772],pest or weed control at 125 g/ha,Kochia (Kochia scoparia); [14],0%
same,pest or weed control at 500 g/ha,Kochia (Kochia scoparia); [15],30%
same,pest or weed control at 125 g/ha,[1]; [14],0%
same,pest or weed control at 500 g/ha,[1]; [15],40%
same,pest or weed control at 125 g/ha,[2]; [14],50%
same,pest or weed control at 500 g/ha,[2]; [15],90%
same,pest or weed control at 125 g/ha,[3]; [14],0%
same,pest or weed control at 500 g/ha,[3]; [15],0%
same,pest or weed control at 125 g/ha,[4]; [14],0%
same,pest or weed control at 500 g/ha,[4]; [15],0%
same,pest or weed control at 125 g/ha,[5],0%
same,pest or weed control at 125 g/ha,[6],0%
same,pest or weed control at 125 g/ha,[7],0%
same,pest or weed control at 125 g/ha,[8],0%
same,"Corn plant response rating (crop injury, 0 = no effect, 100 = complete kill) at 125 g/ha",corn (Zea mays),0%
same,pest or weed control at 125 g/ha,[9],30%
same,pest or weed control at 125 g/ha,[10],0%
same,pest or weed control at 125 g/ha,[11],0%
same,pest or weed control at 125 g/ha,[12],0%
same,plant injury at 125 g/ha,[13],0%

# From US12077503B2, “Substituted cyclic amides and their use as herbicides” (FMC CORPORATION, priority 2015, dated 2024)
